In US11618747B2, “LXR modulators with bicyclic core moiety” (OrsoBio, Inc., priority 2018, dated 2023):
pEC50: −log10 of the molar value. Like-named read-outs stand apart in the source and are kept apart here.

Assays:
full length (FL) LXRβ = target: T1, full length (FL) LXRβ (Homo sapiens, UniProt P55055, DUP175-175); experiment: LXR Gal4 reporter transient transfection assay (FL-M2H Gal4β); type: cell-based; conditions: HEK293 cells
T1 construct: the full length (FL) proteins of LXRα (amino acids 1-447); NP005684; NP009052; expressed in transfected cells; host or cells: HEK293
T1 sequence (P55055 with tags, fused parts or gaps DUP175-175): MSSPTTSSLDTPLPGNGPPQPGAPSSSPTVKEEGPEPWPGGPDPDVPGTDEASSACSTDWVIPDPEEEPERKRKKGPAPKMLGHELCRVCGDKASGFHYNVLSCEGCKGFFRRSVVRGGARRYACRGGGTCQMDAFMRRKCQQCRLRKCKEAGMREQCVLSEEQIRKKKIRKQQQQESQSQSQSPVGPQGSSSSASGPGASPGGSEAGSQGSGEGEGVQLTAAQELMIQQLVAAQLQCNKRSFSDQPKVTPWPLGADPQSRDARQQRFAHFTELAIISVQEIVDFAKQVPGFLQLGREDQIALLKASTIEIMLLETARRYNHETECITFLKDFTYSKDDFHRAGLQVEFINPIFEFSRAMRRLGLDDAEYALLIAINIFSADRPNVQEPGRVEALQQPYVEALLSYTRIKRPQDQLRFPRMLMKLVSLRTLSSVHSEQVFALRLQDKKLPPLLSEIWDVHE
How it was run: (§1)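 HEK293 cells were transiently co-transfected with NFkB activation-domain fusions of LXR (full length or LBD) and GAL4 DNA-binding-domain fusions of SRC1 (aa 552-887) or NCoR (aa 1906-2312), plus a GAL4-response-element Firefly luciferase reporter and a Renilla control. Compounds were added 4 h post-transfection, cells incubated 16 h, then dual luciferase read.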

[1] = target: T2, LXRβ ligand-binding domain (Homo sapiens, UniProt P55055, DUP175-175); experiment: TR-FRETβ activity assay (NCoA3 coactivator peptide recruitment); type: biochemical
T2 construct: amino acids 156-461; NP009052; made in house; host or cells: E. coli
T2 sequence (P55055 with tags, fused parts or gaps DUP175-175 limits assumed): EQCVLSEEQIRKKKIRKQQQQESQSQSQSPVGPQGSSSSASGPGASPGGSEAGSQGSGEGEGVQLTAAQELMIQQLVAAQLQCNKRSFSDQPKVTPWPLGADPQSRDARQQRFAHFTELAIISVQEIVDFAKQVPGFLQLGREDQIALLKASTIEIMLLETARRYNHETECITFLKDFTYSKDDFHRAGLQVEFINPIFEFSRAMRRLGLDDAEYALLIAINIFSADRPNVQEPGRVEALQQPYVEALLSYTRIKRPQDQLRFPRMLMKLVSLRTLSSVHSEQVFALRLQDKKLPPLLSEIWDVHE
How it was run: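 Inverse agonism assessed by loss of coactivator recruitment, read as TR-FRET 665/615 nm after 1 h equilibration at 4 °C, in triplicate. Ten-point titration from 50 μM to 0.002 μM against LXRβ LBD (76 nM, GST fusion) prestimulated with 1 μM 24(S)-25-epoxycholesterol, with 400 nM NCoA3 peptide, pH 6.8. Sulfonyl acetic acids kept as 20 mM DMSO stocks with 100 mM TFA.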

[2] = Short term HFD mouse model: plasma and liver exposure; type: in vivo, mice (C57BL/6J); conditions: HFD mice, three oral doses of 10 mg/kg, 4 h after last dose
Description: Short Term HFD Mouse Model:
The in vivo transcriptional regulation of several LXR target genes by LXR modulators was assessed in mice.
For this, C57BL/6J were purchased from Elevage Janvier (Rennes, France) at the age of 8 weeks. After an acclimation period of two weeks, animals were preferred on a high fat diet (HFD) (Ssniff Spezialdiäten GmbH, Germany, Surwit EF D12330 mod, Cat. No. E15771-34), with 60 kcal % from fat plus 1% (w/w) extra cholesterol (Sigma-Aldrich, St. Louis, Mo.) for 5 days. Animals were maintained on this diet during treatment with LXR modulators. The test compounds were formulated in 0.5% hydroxypropylmethylcellulose (HPMC) and administered in three doses (from 1.5 to 20 mg/kg each) by oral gavage according to the following schedule: on day one, animals received treatment in the morning and the evening (ca. 17:00), on day two animals received the final treatment in the morning after a 4 h fast and were sacrificed 4 h thereafter. Animal work was conducted according to the national guidelines for animal care in Germany.
Upon termination, liver was collected, dipped in ice cold PBS for 30 seconds and cut into appropriate pieces. Pieces were snap frozen in liquid nitrogen and stored at −80° C. For the clinical chemistry analysis from plasma, alanine aminotransferase (ALT, IU/mL), cholesterol (CHOL, mg/dL) and triglycerides (TG, mg/dL) were determined using a fully-automated bench top analyzer (Respons®910, DiaSys Greiner GmbH, Flacht, Germany) with system kits provided by the manufacturer.

full length (FL) LXRα = target: T3, full length (FL) LXRα (Homo sapiens, UniProt Q13133); experiment: LXR Gal4 reporter transient transfection assay (FL-M2H Gal4α); type: cell-based; conditions: HEK293 cells
T3 construct: the full length (FL) proteins of LXRα (amino acids 1-447); NP005684; expressed in transfected cells; host or cells: HEK293
T3 sequence (Q13133 1-447): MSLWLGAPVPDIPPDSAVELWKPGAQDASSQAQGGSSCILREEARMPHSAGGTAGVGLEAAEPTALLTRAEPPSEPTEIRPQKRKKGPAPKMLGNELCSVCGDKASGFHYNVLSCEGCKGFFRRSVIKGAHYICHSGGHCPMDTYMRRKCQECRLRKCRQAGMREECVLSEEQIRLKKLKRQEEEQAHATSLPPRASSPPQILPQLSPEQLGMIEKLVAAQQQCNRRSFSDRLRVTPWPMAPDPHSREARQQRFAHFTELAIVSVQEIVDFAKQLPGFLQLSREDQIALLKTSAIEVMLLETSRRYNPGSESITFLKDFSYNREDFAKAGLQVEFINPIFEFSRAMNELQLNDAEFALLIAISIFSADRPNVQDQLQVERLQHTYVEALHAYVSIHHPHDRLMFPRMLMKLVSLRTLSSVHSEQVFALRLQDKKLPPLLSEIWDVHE
How it was run: as §1

[3] = full length LXRβ, read-out: FL-M2H Gal4β (EC50 range)
[4] = TR-FRET, 1 μM 24(S)-25-epoxycholesterol prestimulation, read-out: FRETβ (EC50 range)
[5] = full length LXRα, read-out: FL-M2H Gal4α (EC50 range)
[6] = 1 μM 24(S)-25-epoxycholesterol as prestimulating agonist
[7] = 1 μM 24(S)-25-epoxycholesterol as prestimulating agonist, read-out: FRETβ potency

Compound | pEC50 (full length (FL) LXRβ; [3]) | pEC50 [1, 4] | liver exposure 4 h [2] | liver/plasma ratio 4 h [2] | plasma exposure 4 h [2] | pEC50 (full length (FL) LXRα; [5]) | FL-M2H Gal4β potency (full length (FL) LXRβ) | FRETβ efficacy (value in brackets) [1, 6] [%] | pEC50 [1, 7] | FL-M2H Gal4α potency (full length (FL) LXRα) | FL-M2H Gal4β efficacy (value in brackets) (full length (FL) LXRβ) [%] | pEC50 (full length (FL) LXRβ; read-out: FL-M2H Gal4β potency) | FL-M2H Gal4α efficacy (value in brackets) (full length (FL) LXRα) [%] | pEC50 (full length (FL) LXRα; read-out: FL-M2H Gal4α potency)
CS(=O)(=O)NC(=O)c1ccc(-c2cccc(-c3c(-c4c(C#N)cccc4C#N)c4cc(F)ccc4n3S(=O)(=O)c3ccc(C(F)F)cc3)c2)c(Cl)c1 [32/5] | > 7.00 | > 7.00 | B (300 nM to ≤1 μM) | B (5 to ≤30) | D (D: <100 nM) | – | – | – | – | – | – | – | – | –
Cc1ccc(S(=O)(=O)n2c(-c3cccc(-c4cccc(S(C)(=O)=Nc5nnn[nH]5)c4)c3)c(-c3ccsc3C#N)c3cc(F)ccc32)cc1 (centres unmarked) [37/1] | 6.00 to 7.00 | 6.00 to 7.00 | – | – | – | 6.00 to 7.00 | – | – | – | – | – | – | – | –
Cc1ccc(S(=O)(=O)n2c(-c3cccc(N4CC(C(=O)O)C4)c3)c(-c3csc(C#N)c3)c3cc(F)ccc32)cc1 [C3/29, reference compound] | – | – | – | – | – | – | inactive | −102 | 5.37 | inactive | – | – | – | –
O=C(O)c1ccc(-c2cccc(-c3c(-c4ccccc4)c4cc(F)ccc4n3S(=O)(=O)c3ccc(C(F)F)cc3)c2)c(Cl)c1 [C11/39, reference compound] | > 7.00 | 6.00 to 7.00 | – | – | – | > 7.00 | – | −91 | 6.98 | – | 140 | 7.85 | 117 | 7.85
N#Cc1cccc(-c2c(-c3cccc(-c4ccc(C(=O)O)cc4Cl)c3)n(S(=O)(=O)c3ccc(C(F)F)cc3)c3ccc(F)cc23)c1 [C11/48, reference compound] | > 7.00 | > 7.00 | – | – | – | – | – | −96 | 7.31 | – | 123 | 7.49 | 118 | 7.21
Cc1ccc(S(=O)(=O)n2c(-c3cccc(-c4ccc(C(C(=O)O)N(C)C)cc4Cl)c3)c(-c3ccsc3C#N)c3cc(F)ccc32)cc1 (centres unmarked) [Example 3, 2-(2-Chloro-3′-(3-(2-cyanothiophen-3-yl)-5-fluoro-1-tosyl-1H-indol-2-yl)-[1,1′-biphenyl]-4-yl)-2-(dimethylamino)acetic Acid] | > 7.00 | > 7.00 | – | – | – | > 7.00 | – | – | – | – | – | – | – | –
